Measurements from patent US5120738A, “Pantothenic acid derivatives” (Fujirebio Inc., priority 1990, dated 1992).

molecular target: T1, acyl CoA-cholesterol-acyltransferase (ACAT) (Rattus norvegicus, UniProt Q7TQM4); assay: ACAT inhibition test (cholesteryl oleate formed from [1-14C]oleoylCoA, rat liver microsome fraction); format: biochemical; conditions: 10^-6 M test drug, 37° C., 4 minutes, relative to control without test compound
T1 construct: a microsome fraction prepared from a rat liver; from tissue; host or cells: rat liver microsome fraction
T1 sequence (Q7TQM4 1-524): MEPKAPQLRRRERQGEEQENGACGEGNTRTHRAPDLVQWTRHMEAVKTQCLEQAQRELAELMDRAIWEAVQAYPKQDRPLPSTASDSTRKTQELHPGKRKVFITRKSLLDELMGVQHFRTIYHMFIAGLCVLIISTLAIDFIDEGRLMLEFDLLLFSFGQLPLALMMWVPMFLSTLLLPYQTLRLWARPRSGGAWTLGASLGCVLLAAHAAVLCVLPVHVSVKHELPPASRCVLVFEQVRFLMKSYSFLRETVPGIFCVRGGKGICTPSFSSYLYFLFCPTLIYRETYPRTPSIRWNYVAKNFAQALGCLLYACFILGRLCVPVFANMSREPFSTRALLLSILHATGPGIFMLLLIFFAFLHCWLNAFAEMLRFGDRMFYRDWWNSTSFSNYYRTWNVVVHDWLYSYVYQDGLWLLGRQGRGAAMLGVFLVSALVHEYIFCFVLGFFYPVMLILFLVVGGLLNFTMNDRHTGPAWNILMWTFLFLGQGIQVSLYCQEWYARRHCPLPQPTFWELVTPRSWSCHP
Description: ACAT inhibition tests were carried out by measuring cholesteryl oleate produced from [1-^14 C]oleoylCoA and endocellular cholesterol similarly to the method of Helgerud et al. [cf.
Thereafter, 4.2 ml of methanol and 8.3 ml of chloroform were added to the reaction mixture to stop the reaction. Then, 2.5 ml of water was added and after shaking the mixture sufficiently a chloroform layer was separated. After concentrating it, the chloroform layer was subjected to thin layer chromatography. The cholesteryl oleate formed was separated and its radioactivity was measured by a liquid scientilaltion counter.
On the other hand, the same tests as above were repeated without using test compounds. The radioactivity of the control thus obtained was used as a standard for calculating the ACAT inhibiting activity of each test compound.

| Structure (SMILES) | inhibition at 1 µM [%] |
| --- | --- |
| CCCCCCCC/C=C\CCCCCCCC(=O)N1CCCC(NC(=O)CCNC(=O)C2OC(C)(C)OCC2(C)C)C1 (single isomer, unassigned) [Example 171] | 61.1 |
| CCCCCCCC/C=C\CCCCCCCC(=O)Nc1ccccc1NC(=O)CCNC(=O)C(OC(C)=O)C(C)(C)COC(C)=O (stereo not drawn) [Example 2, N-[2-(Oleoylamino)phenyl]-3-[N-(2,4-diacetoxy-3,3-dimethyl-1-oxobutyl)amino]propanamide] | 64.8 |
| CCCCC/C=C\C/C=C\CCCCCCCC(=O)Nc1ccccc1NC(=O)CCNC(=O)C1OC(C)(C)OCC1(C)C (stereo not drawn) [Example 4, N-2-(Linoleoylamino)phenyl]-3-[[N-(2,2,5,5-tetramethyl-1,3-dioxane-4-carbonyl)amino]propanamide] | 79.8 |
| CC/C=C\C/C=C\C/C=C\CCCCCCCC(=O)Nc1ccccc1NC(=O)CCNC(=O)C1OC(C)(C)OCC1(C)C (stereo not drawn) [Example 5] | 56 |
| CCCCC/C=C\C/C=C\CCCCCCCC(=O)Nc1cccc(NC(=O)CCNC(=O)C2OC(C)(C)OCC2(C)C)c1 (stereo not drawn) [Example 9, [N-3-(Linoleylamino)phenyl]-3-[N-(2,2,5,5-tetramethyl-1,3-dioxane-4-carbonyl)amino]propanamide] | 51.8 |
| CCCCCCCC/C=C\CCCCCCCC(=O)Nc1ccccc1OC(=O)CCNC(=O)C1OC(C)(C)OCC1(C)C (stereo not drawn) [Example 15, 2-(Oleoylamino)phenyl 3-[N-(2,2,5,5-tetramethyl-1,3-dioxane-4-carbonyl)amino]propionate] | 79.6 |
| CCCCCCCC/C=C\CCCCCCCC(=O)NC[C@@H]1CCCN1C(=O)CCNC(=O)C(O)C(C)(C)CO (stereo partly drawn) [Example 166] | 65.7 |
| CCCCCCCC/C=C\CCCCCCCC(=O)NC[C@H]1CCCN1C(=O)CCNC(=O)C1OC(C)(C)OCC1(C)C (stereo partly drawn) [Example 167] | 64 |
| CCCCCCCC/C=C\CCCCCCCC(=O)NC1CCCN(C(=O)CCNC(=O)C2OC(C)(C)OCC2(C)C)C1 (stereo not drawn) [Example 168] | 75.7 |
| CCCCCCCC/C=C\CCCCCCCC(=O)NC1CCCN(C(=O)CCNC(=O)C(O)C(C)(C)CO)C1 (stereo not drawn) [Example 169] | 58.3 |
| CCCCCCCC/C=C\CCCCCCCC(=O)N1CCN(C(=O)CCNC(=O)C(O)C(C)(C)CO)CC1 (stereo not drawn) [Example 193] | 18.9 |
| CCCCCCCC/C=C\CCCCCCCC(=O)N1CCCN(C(=O)CCNC(=O)C(OC(C)=O)C(C)(C)COC(C)=O)CC1 (stereo not drawn) [Example 194, 1-Oleoyl-4-(1-oxo-3-N-(1-oxo-2,4-diacetoxy-3,3-dimethylbutyl)aminopropyl)tetrahydro-1,4-diazepine] | 62.6 |
| CCCCCCCC/C=C\CCCCCCCC(=O)N1CCCN(C(=O)CCNC(=O)C(O)C(C)(C)CO)CC1 (stereo not drawn) [Example 195] | 48.7 |
| CCCCCCCCC=CCCCCCCCNC(=O)N1CCN(C(=O)CCNC(=O)C2OC(C)(C)OCC2(C)C)CC1 (stereo not drawn) [Example 198] | 84.3 |
| CCCCCCCCCCC(C)C(=O)N1CCN(C(=O)CCNC(=O)C2OC(C)(C)OCC2(C)C)CC1 (stereo not drawn) [Example 199] | 53.7 |

same assay, conditions: in square brackets behind the % inhibition, range in parentheses not explained, read-out: ACAT inhibition [IC50 × 10^-7 M]

| Structure (SMILES) | IC50 [nM] |
| --- | --- |
| CCCCCCCC/C=C\CCCCCCCC(=O)Nc1ccccc1NC(=O)CCNC(=O)C1OC(C)(C)OCC1(C)C (stereo not drawn) [Example 1, N-[2-(Oleoylamino)phenyl]-3-[N-(2,2,5,5-tetramethyl-1,3-dioxane-4-carbonyl)amino]propanamide] | 295 |
| CCCCCCCC/C=C\CCCCCCCC(=O)Nc1ccccc1NC(=O)CCNC(=O)C(OC(C)=O)C(C)(C)COC(C)=O (stereo not drawn) [Example 2, N-[2-(Oleoylamino)phenyl]-3-[N-(2,4-diacetoxy-3,3-dimethyl-1-oxobutyl)amino]propanamide] | 274 |
| CCCCCCCC/C=C\CCCCCCCC(=O)NCCNC(=O)CCNC(=O)C1OC(C)(C)OCC1(C)C (stereo not drawn) [Example 33] | 299 |
| CCCCCCCC/C=C\CCCCCCCC(=O)NCCCNC(=O)CCNC(=O)C1OC(C)(C)OCC1(C)C (stereo not drawn) [Example 34] | 385 |
| CCCCCCCC/C=C\CCCCCCCC(=O)NCCCCNC(=O)CCNC(=O)C1OC(C)(C)OCC1(C)C (stereo not drawn) [Example 37, N-(4-Oleoylaminobutyl)-3-[N-(2,2,5,5-tetramethyl-1,3-dioxane-4-carbonyl)amino]propanamide] | 286 |
| CCCCCCCC/C=C\CCCCCCCC(=O)NCCOC(=O)CCNC(=O)C1OC(C)(C)OCC1(C)C (stereo not drawn) [Example 44, 2-(N-Oleoylamino)ethyl 3-[N-(2,2,5,5-tetramethyl-1,3-dioxane-4-carbonyl)amino]propionate] | 686 |
| CCCCCCCC/C=C\CCCCCCCC(=O)NCCCOC(=O)CCNC(=O)C1OC(C)(C)OCC1(C)C (stereo not drawn) [Example 47, 3-(N-oleoylamino]propyl 3-[N-(2,2,5,5-tetramethyl-1,3-dioxane-4-carbonyl)amino]propionate] | 250 |
| CCCCCCCC/C=C\CCCCCCCC(=O)NCCCCCOC(=O)CCNC(=O)C1OC(C)(C)OCC1(C)C (stereo not drawn) [Example 66] | 355 |
| CCCCCCCC/C=C\CCCCCCCC(=O)NCCCCCCOC(=O)CCNC(=O)C1OC(C)(C)OCC1(C)C (stereo not drawn) [Example 67] | 389 |
| CCCCCCCC/C=C\CCCCCCCC(=O)N[C@H]1CCCC[C@@H]1NC(=O)CCNC(=O)C1OC(C)(C)OCC1(C)C (stereo partly drawn) [Example 70, N-[(1S,2S)-2-(Oleoylamino)cyclohexane]-3-[N-(2,2,5,5-tetramethyl-1,3-dioxane-4-carbonyl)amino]propanamide] | 162 |
| CCCCCCCC/C=C\CCCCCCCC(=O)N[C@H]1CCCC[C@@H]1NC(=O)CCNC(=O)[C@H](OC(C)=O)C(C)(C)COC(C)=O [Example 71] | 198 |
| CCCCCCCC/C=C\CCCCCCCC(=O)N[C@H]1CCCC[C@@H]1NC(=O)CCNC(=O)[C@H](O)C(C)(C)CO [Example 74, N-[(1S,2S)-2-(Oleoylamino)cyclohexane-1-yl]-3-[N-[(2R)-2,4-dihydroxy-3,3-dimethyl-1-oxobutyl]amino]propanamide] | 155 |
| CCCCCCCC/C=C\CCCCCCCC(=O)N[C@@H]1CCCC[C@H]1OC(=O)CCNC(=O)C1OC(C)(C)OCC1(C)C (stereo partly drawn) [Example 77, (1R,2R)-2-(Oleoylamino)cyclohexane-1-yl 3-[N-(2,2,5,5-tetramethyl-1,3-dioxane-4-carbonyl)amino]propionate] | 210 |
| CCCCCCCC/C=C\CCCCCCCC(=O)N[C@H]1CCCC[C@@H]1OC(=O)CCNC(=O)C1OC(C)(C)OCC1(C)C (stereo partly drawn) [Example 78, (1S,2S)-2-(Oleoylamino)cyclohexane-1-yl 3-[N-(2,2,5,5-tetramethyl-1,3-dioxane-4-carbonyl)amino]propionate] | 40.1 |
| CCCCC/C=C\C/C=C\CCCCCCCC(=O)N[C@H]1CCCC[C@@H]1OC(=O)CCNC(=O)C1OC(C)(C)OCC1(C)C (stereo partly drawn) [Example 80, (1S,2S)-2-(Linoleoylamino)cyclohexane-1-yl 3-[N-(2,2,5,5-tetramethyl-1,3-dioxane-4-carbonyl)amino]propionate] | 108 |
